Two compounds from patent publication US6489157B1, “Medium for cultivating microorganisms” (priority 1999, dated 2002) can be followed below.

Data set [1] has as its system isolate of CHL004. Nature of the data set: Use as phosphate source for growth. Format: cell-based, Pseudomonas aeruginosa. An excerpt: In Wanner (16), it is noted that organophosphates can be directly transported to the cytoplasm of E. coli and S. typhimurium, or they can be hydrolyzed in the periplasm by phosphatases, after which the phosphate is transported to the cytoplasm.

Data set [2] in a line: Solubility of Pb(NO3)2 in BPTN, ICAP trace metal analysis before and after 0.2 micrometer filtering. It counts as physicochemical. Conditions: n=4.
In data set [3] the test system is P. aeruginosa CHL004. Put plainly: Growth in medium with Pb(NO3)2. It counts as cell-based, Pseudomonas aeruginosa. Conditions: Pb(NO3)2 increased from zero to 1 mM in BPTN. As for the experimental part: All cultures were grown at 29° C. in a water bath incubator with shaking at a speed of 200 rpm. The cultures were inoculated with a saturated overnight culture in BPTN. Overnight cultures (˜18 hours) were prepared from −80° C. freezer stocks. Data were typically obtained after approximately three or more doublings, and only data between an optical density at 650 nm (OD650) of 0.1 and half the saturation cell density were used for analysis.
Growth rate and saturation cell density studies. The OD650 was measured using a Perkin Elmer Lambda 2 UV/VIS spectrometer. The cell path length was 10 mm. Duplicate 100 μL aliquots were taken from growing cultures and diluted with 900 microliters of a solution having a minimum concentration of 62 mM NaNO3. The same diluent was used within a given growth rate curve. Sixty two mM NaNO3 was determined to be isosmotic with BPTN. Osmolalities were determined using a Precision Instruments microOsmette freezing point depression osmometer calibrated at 0, 100, and 500 mOsm.
Growth in medium with Pb(NO3)2. […] The variances from the growth rate curve fittings for BPTN+1 mM Pb(NO3) 2 are typically equal to or smaller than those for BPTN. […] A linear relationship between CFU/mL and OD650 is expected if the extent of scattering is proportional to the cell density in the cell slurry. […]

Each structure is given as a SMILES string.

With `N[C@@H](COP(=O)(O)O)C(=O)O` [O-Phospho-L-serine], the “use as a phosphate source” value in data set [1] is on record as “can be used as a phosphate source”.

As for `O=[N+]([O-])[O-].O=[N+]([O-])[O-].[Pb+2]` [Pb(NO3)2], in data set [2] (0.2 micrometer PES syringe filter), the “Pb^2+ concentration after filtering” value turned out to be 25.1 ± 1.3 mM. The “Pb^2+ concentration before filtering” value in data set [2] was determined as 24.0 ± 0.6 mM. In data set [3], the “change of growth rate constant of CHL004 with Pb(NO3)2 concentration” value is recorded as “decreases”.
